“And” between values parts separate entries of the source, which are not always exact repeats. Equal values may be shown once.
Legend:
Microsome stability = type: in vitro ADME, human
[1] = Parallel artificial membrane permeability assay (PAMPA); type: in vitro ADME
Procedure: Compound Papp values were determined by normalizing the experimental compound absorbance to the compounds’ absorbances at equilibrium, membrane porosity, buffer volume, and time (s). Two or more replicate assays were obtained on separate days for each pH.

[2] = Solubility limit, turbidimetric assay; type: physicochemical; conditions: upper limit 200 µM
Procedure: Solubility limits were determined by a turbidimetric assay, as described ([27]), with the solubility limit being defined as the compound concentration where light scattering began to rise. Two or more replicate assays were performed for each compound at each pH on different days.

CYP3A4 mRNA expression = assay: CYP3A4 induction, RT-qPCR in HepG2 cells; conditions: 10 µM, 24 or 48 h, normalized to GAPDH and DMSO
Procedure: HepG2 cells were seeded on 12-well, tissue-culture-treated plates (Sarstedt) at 2.5 × 10^5 cells/well for 24 h. Cells were treated with 10 µM compound or 1% DMSO for 48 h with replenishment at 24 h. Cells were rinsed with PBS and lysed at 0, 24, and 48 h using TRI Reagent (Sigma Aldrich). […] Cellular DNA was degraded using DNase I (Invitrogen), according to the manufacturer’s instructions.
Complementary DNA (cDNA) synthesis employed the ProtoScript II First Strand cDNA Synthesis Kit (New England Biolabs) according to the manufacturer’s instructions with an additional incubation step at 25°C for 5 min. Reverse transcriptase-qPCR (RT-qPCR) was performed using a Quantstudio 5 (Thermo Fisher) in a final reaction volume of 20 µL with 4 µL cDNA template, 2× KAPA probe force master mix (Roche), 300 nM probe, and 100 nM forward and reverse primer. CYP3A4 expression was determined by normalizing the experimental sample cycle threshold values to DMSO-treated wells. GAPDH was used as a housekeeping gene.

plasma proteins = assay: Plasma protein binding, rapid equilibrium dialysis; type: in vitro ADME, bovine; conditions: 10 µM compound, DMEM-F12 with 10% FBS (0.25 mg/mL BSA), 4 h, 37°C
Procedure: Plasma protein binding was performed using the Pierce rapid equilibrium dialysis device (Thermo Fisher) per the manufacturer’s instructions, as described ([27]). Briefly, the sample wells contained DMEM-F12 supplemented with 10% FBS spiked with 10 µM compound, and the buffer wells contained phosphate-buffered saline (PBS). The plate was incubated for 4 h at 37°C with shaking, after which 50 µL was retrieved from the buffer and sample wells and added to ice-cold acetonitrile and the internal standard described above. Samples were matrix-matched with PBS supplemented with 10% FBS or PBS alone, respectively, and centrifuged at 4,000 × g for 5 min to pellet plasma proteins. The supernatants were analyzed by LCMS/MS and percent compound bound was determined, as described previously ([27]).

HepDES19 cells = conditions: read-out: HepDES19 CC50; 72 h, MTS; highest concentration tested 100 µM; mean ± SD
[3] = tested on: HBV replication (HBV plus-polarity DNA strand); assay: HBV replication inhibition, strand preferential qPCR in hepDES19 cells; type: cell-based, hepatitis B virus; conditions: for EC50: 72 h exposure, HBV plus-polarity strand suppression, highest concentration tested 100 µM, mean ± SD, read-out: HepDES19 EC50
Procedure: HBV replication inhibition was measured in hepDES19 cells following 72 h compound exposure without compound replenishment. EC50 values were determined by HBV plus-polarity strand suppression using a strand preferential qPCR assay, as described previously ([28]). Three or more replicate values were obtained on different days.

MDCK-MDR1 cells = assay: MDCK-MDR1 permeability assay; type: in vitro ADME; conditions: 10 µM compound, 2 h; for Efflux Ratio (Papp B-A/A-B): MDCK-MDR1 cells, actively effluxed if >2
Procedure: MDCK-MDR1 cells were seeded on 96-well, high protein binding immobilon-P membrane plates (Millipore Sigma) at 2.4 × 10^4 cells per well for 4 days. Media were then decanted, and the cells were equilibrated with Hanks balanced salt solution (HBSS) supplemented with 10 mM CaCl2 and 1 mM MgCl2 for 1 h. Compound (10 µM) was then added to the apical side to assess active transport and to the basolateral side to assess active efflux. The cells were incubated with compound for 2 h with shaking at 37°C. Samples (50 µL) were retrieved from the recipient wells and mixed with 150 µL acetonitrile (ACN) and internal standard (1:1 of 200 ng/mL chloridazon:enalapril). Samples were pelleted at 4,000 × g and the supernatant was analyzed by liquid-chromatography/tandem mass spectrometry (LCMS/MS) analyses. […]. Active efflux was determined by Papp B/A/Papp A/B.
Tight junction formation was assessed by lucifer yellow permeation immediately following sample retrieval. Briefly, lucifer yellow (10 µM) was added to the apical wells and HBSS was added to the basolateral wells for 1 h with shaking at 37°C, after which sample was collected from the basolateral side and read on a Biotek Synergy HTX multi-mode plate reader with 485/20 excitation and 520/20 emission filters defined by the Center Wavelength/band-pass values. The percent lucifer yellow fluorescence was determined by subtracting the HBSS relative fluorescent units (RFU) from the sample RFU and normalizing to the lucifer yellow positive control RFU. Lucifer yellow permeation was determined to be acceptable if ≤3%.

[4] = target: T1, human ribonuclease H1 (huRNase H1) (Homo sapiens, UniProt O60930); assay: Human RNase H1 inhibition, fluorescent biochemical assay
T1 construct: made in house; host or cells: Escherichia coli
T1 sequence (O60930 1-286): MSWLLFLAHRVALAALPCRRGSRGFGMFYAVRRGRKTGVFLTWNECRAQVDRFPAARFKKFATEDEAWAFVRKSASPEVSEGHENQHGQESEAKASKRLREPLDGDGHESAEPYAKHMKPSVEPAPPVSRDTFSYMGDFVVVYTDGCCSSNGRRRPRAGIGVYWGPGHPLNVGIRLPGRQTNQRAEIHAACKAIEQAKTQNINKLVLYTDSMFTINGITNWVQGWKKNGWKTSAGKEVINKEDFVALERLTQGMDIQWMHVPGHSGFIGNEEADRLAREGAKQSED
Procedure: Recombinant human ribonuclease H1 (huRNase H1) was expressed in Escherichia coli and purified by nickel affinity chromatography, as described previously ([30]). […] The heteroduplex substrate was prepared, as described by Ponzar et al. ([30]). Reactions were initiated by the addition of MgCl2 (5 mM final) and were performed on a Biotek Synergy HTX multi-mode plate reader at 28°C.
Maximum rates of fluorescence increase were calculated using the Biotek Gen5 v3.15 software and percentage activity was determined for each compound concentration by subtracting rates from no enzyme reactions and normalizing to DMSO reactions. […] Reactions were performed at least three times on separate days.

CYP3A4 = target: T2, CYP3A4 (Homo sapiens, UniProt P08684); assay: Cytochrome P450 inhibition, Vivid 3A4 DBOMF Green kit; type: in vitro ADME; conditions: 10 µM compound
T2 construct: purchased Thermo Fisher Vivid 3A4 DBOMF Green
T2 sequence (P08684 whole entry): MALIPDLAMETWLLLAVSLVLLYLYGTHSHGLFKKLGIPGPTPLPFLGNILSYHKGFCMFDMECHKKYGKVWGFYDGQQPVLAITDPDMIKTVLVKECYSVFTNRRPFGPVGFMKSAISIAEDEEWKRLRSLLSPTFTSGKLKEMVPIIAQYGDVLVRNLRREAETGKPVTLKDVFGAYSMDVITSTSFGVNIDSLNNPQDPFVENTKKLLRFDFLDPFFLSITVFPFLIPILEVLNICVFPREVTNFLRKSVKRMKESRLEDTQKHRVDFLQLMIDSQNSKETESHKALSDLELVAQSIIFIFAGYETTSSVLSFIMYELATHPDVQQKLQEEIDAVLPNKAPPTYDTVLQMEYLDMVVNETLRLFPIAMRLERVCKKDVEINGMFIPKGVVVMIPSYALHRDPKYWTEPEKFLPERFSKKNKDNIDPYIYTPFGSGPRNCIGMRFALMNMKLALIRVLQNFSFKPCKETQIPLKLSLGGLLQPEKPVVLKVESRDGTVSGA
Procedure: (§1) Compound inhibition of Cytochrome P (CYP) 3A4, 2C9, and 2D6 was determined using Vivid CYP450 screening kits (Thermo Fisher) according to the manufacturer’s instructions, as described previously ([27]). The kits employed were: Vivid 3A4 DBOMF Green, 2C9 BOMF Green, and 2D6 EOMCC Blue. Reactions were initiated by addition of the fluorophore-conjugated substrates with Vivid NADP^+ and were conducted at 37°C using either a Biotek Synergy HTX multi-mode plate reader with 485/20 nm excitation and 520/20 nm emission filters (green-fluorescent substrate), or a Tecan Spark plate reader with monochromator settings at 415/20 nm excitation and 460/20 nm emission (blue-fluorescent substrate) defined by the Center Wavelength/band-pass values. Substrate cleavage was detected every 60 s.
(§2) Compounds were initially screened against each enzyme at 10 µM and maximum rates of fluorescence in RFU were calculated using the Biotek Gen5 v3.11 software. Percent inhibition of experimental compound reactions was normalized to the rate to DMSO vehicle reactions. Positive controls used were: CYP3A4—ketoconazole (Sigma Aldrich), CYP2C9—sulfaphenazole (Cayman Chemical), and CYP2D6—quinidine (Fisher Scientific). […] IC50 values were determined using the four-parameter log[inhibitor] versus response algorithm in GraphPad Prism. […]

CYP2C9 = target: T3, CYP2C9 (Homo sapiens, UniProt P11712); assay: Cytochrome P450 inhibition, Vivid 2C9 BOMF Green kit; type: in vitro ADME; conditions: 10 µM compound
T3 construct: purchased Thermo Fisher Vivid 2C9 BOMF Green
T3 sequence (P11712 whole entry): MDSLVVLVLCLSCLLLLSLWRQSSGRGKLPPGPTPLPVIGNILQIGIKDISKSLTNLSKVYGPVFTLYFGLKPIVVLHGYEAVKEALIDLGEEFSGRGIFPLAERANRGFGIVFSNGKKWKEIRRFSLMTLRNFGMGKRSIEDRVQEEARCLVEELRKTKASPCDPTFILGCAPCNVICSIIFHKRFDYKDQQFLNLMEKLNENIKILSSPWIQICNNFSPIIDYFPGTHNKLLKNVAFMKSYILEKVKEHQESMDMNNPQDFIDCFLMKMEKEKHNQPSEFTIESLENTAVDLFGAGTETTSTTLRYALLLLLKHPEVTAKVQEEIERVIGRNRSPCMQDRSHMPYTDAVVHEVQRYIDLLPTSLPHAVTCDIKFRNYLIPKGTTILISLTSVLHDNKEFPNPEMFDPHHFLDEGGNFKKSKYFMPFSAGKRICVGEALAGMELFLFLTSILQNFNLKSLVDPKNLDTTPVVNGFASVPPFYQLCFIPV
Procedure: as §1, §2

[5] = human liver microsomes, 1 µM compound, 30 min, NADPH
[6] = pH 5 (fed simulated intestinal fluid)
[7] = pH 6.5 (fasted simulated intestinal fluid)

| Compound | Avg Papp (PAMPA) ([1]; FeSSIF pH 5) | Interpretation (PAMPA Papp) ([1]; FeSSIF pH 5) | Papp 1 (PAMPA) ([1]; FeSSIF pH 5, replicate 1) | Papp 2 (PAMPA) ([1]; FeSSIF pH 5, replicate 2) | Avg Papp (PAMPA) ([1]; pH 7.4) | Interpretation (PAMPA Papp) ([1]; pH 7.4) | Papp 2 (PAMPA) ([1]; pH 7.4, replicate 2) | Average Sol (solubility limit) [2, 6] | Sol 1 (solubility limit) ([2]; pH 5, replicate 1) | Sol 2 (solubility limit) ([2]; pH 5, replicate 2) | Average Sol (solubility limit) [2, 7] | Sol 1 (solubility limit) ([2]; pH 6.5, replicate 1) | Sol 2 (solubility limit) ([2]; pH 6.5, replicate 2) | Average Sol (solubility limit) ([2]; pH 7.4 (DMEM-F12 with 10% FBS)) | Sol 1 (solubility limit) ([2]; pH 7.4, replicate 1) | Sol 2 (solubility limit) ([2]; pH 7.4, replicate 2) | CC50 (HepDES19 cells) | HepDES19 SI (CC50/EC50) [3] | EC50 [3] | Efflux Ratio (Papp B-A/A-B) (MDCK-MDR1 cells) | also measured |
| --- | --- | --- | --- | --- | --- | --- | --- | --- | --- | --- | --- | --- | --- | --- | --- | --- | --- | --- | --- | --- | --- |
| CC(=NOCc1cccc(C)c1)c1c(C)cc(=O)n(O)c1O [Compound 1620] | 1.89e-05 cm/s | H (H: Papp > 1*10-6) | 2.29e-05 cm/s | 1.49e-05 cm/s | 1.38e-06 cm/s | H (H: Papp > 1*10-6) | 1.38e-06 cm/s | > 200 µM | > 200 µM | > 200 µM | > 200 µM | > 200 µM | > 200 µM | > 200 µM | > 200 µM | > 200 µM | > 100 µM | 526 | 190 ± 87 nM | 1.39 | Intrinsic clearance (Clint) rate category (Microsome stability; human liver microsomes): low (low Clint (µL/min/mg protein) rates (<8.6)); Clearance (intrinsic clearance, Clint) (Microsome stability; [5]): 7.00 µL/min/mg; Half-life (Microsome stability; [5]): >30 min; Papp 1 (PAMPA) ([1]; pH 7.4, replicate 1): 1.38e-06 cm/s; CYP3A4 mRNA expression increase (CYP3A4 mRNA expression): < 2 fold; Percent bound (plasma proteins): 85.8 ± 13.2%; MDCK-MDR1 Papp category, apical to basolateral (A-B) (MDCK-MDR1 cells): high (high (≥1*10^−6 cm/s)); MDCK-MDR1 Papp category, basolateral to apical (B-A) (MDCK-MDR1 cells): high (high (≥1*10^−6 cm/s)); Selectivity of HBV replication inhibition over huRNase H1 (huRNase H1 IC50 versus HBV EC50) [4]: at least 10 fold |
| CC(=NOCc1ccc(OCc2ccc3ccccc3c2)cc1)c1c(C)cc(=O)n(O)c1O [Compound 1899] | 5.61e-06 cm/s | H (H: Papp > 1*10-6) | 6.93e-06 cm/s | 4.29e-06 cm/s | 1.84e-06 cm/s | H (H: Papp > 1*10-6) | 1.08e-06 cm/s | > 200 µM | > 200 µM | > 200 µM | > 200 µM | > 200 µM | > 200 µM | > 200 µM | > 200 µM | > 200 µM | 68.6 ± 24.3 µM | 40.7 | 1920 ± 700 nM | 2.28 and > 2 | Clearance (intrinsic clearance, Clint) (Microsome stability; human, microsomes): 35.6 µL/min/mg; Half-life (Microsome stability; human, microsomes): 29.6 min; Papp 1 (PAMPA) ([1]; PAMPA, pH 7.4): 2.28e-06 cm/s; Papp 3 (PAMPA) ([1]; pH 7.4, replicate 3): 2.16e-06 cm/s; Percent inhibition of CYP3A4 (CYP3A4): ~ 42%; Percent inhibition of CYP2C9 (CYP2C9): 46% |

— PMC11784145, “Efficacy and in vitro pharmacological assessment of novel N-hydroxypyridinediones as hepatitis B virus ribonuclease H inhibitors” (Antimicrobial Agents and Chemotherapy, 2024)
